Results as given in patent US20250228854A1, “HETEROCYCLIC SUBSTITUTED PYRIMIDOPYRAN COMPOUNDS AND THEIR APPLICATIONS” (priority 2023, published 2025).
Where a name gives a salt, the structure may show the parent alone.

Experiments:
[1] = test system: p-ERK of KRAS^G12D mutant AsPC-1 cells; test: AsPC-1 cell p-ERK inhibition test (HTRF), Experimental Example 1; type: cell-based; conditions: Homo sapiens, ASPC1, 3 hours compound incubation
Protocol: Experimental Example 1. AsPC-1 Cell p-ERK Inhibition Test
The inhibitory activity of the compound on p-ERK levels of KRAS^G12D-mutant pancreatic cancer AsPC-1 cells was assessed by HTRF.
ASPC-1 cells were purchased from ATCC; RPMI-1640 medium was purchased from Gibco; Fetal Bovine Serum was purchased from Hyclone; Advanced Phospho-ERK1/2 (THR202/TYR204) KIT was purchased from Bioauxilium—
ASPC-1 cells were seeded in a 384-well cell culture plate with a white bottom, 8 μL of cell suspension per well, containing 7,500 cells per well, and the cell plates were placed in a carbon dioxide incubator and incubated at 37° C. overnight;
The test compound was diluted to 3 mM with 100% DMSO as the first concentration, and then diluted to ten concentrations of 3000, 1000, 300, 100, 30, 10, 3, 1, 0.3, 0.1 μM with a pipette. Take 2 μL of compound and add 198 μL of cell starvation medium. After mixing well, take 15 μL of compound solution and add 35 μL of cell starvation medium and mix well. Then add 4 μL of compound solution in each well to the corresponding cell plate well. Place the cell plate back in the carbon dioxide incubator for continued incubation for 3 hours. At this time, the compound concentration is 3,000, 1,000, 300, 100, 30, 10, 3, 1, 0.3, 0.1 nM. […]
After the end of incubation, use a multi-label analyzer to read HTRF excitation: 320 nm, emission: 615 nm, 665 nm; […]

[2] = test system: p-ERK in AsPC-1 cells (KRAS^G12D mutation, pancreatic cancer); test: AsPC-1 cell p-ERK inhibition test, Experimental Example 2; conditions: Homo sapiens, ASPC1, read-out: AsPC-1 p-ERK IC50 (nM)
Protocol: 1640 medium, penicillin/streptomycin antibiotics were purchased from Gibco, and fetal bovine serum was purchased from Biosera. CellTiter-Glo (Cell Viability Chemiluminescence Detection Reagent) reagent was purchased from Promega. AsPC-1 cell line was purchased from ATCC, Envision Multi-Tag Analyzer (PerkinElmer).
AsPC-1 (KRAS^G12D mutation, pancreatic cancer) cells were seeded in ultra-low adsorption 96-well blackwall plate, 80 μL cell suspension per well, containing 10,000 AsPC-1 cell lines from ATCC cells. Plates were incubated overnight in a carbon dioxide incubator.
The test compound was diluted 8 concentrations with a 5-fold drain, i.e., from 2 mM to 25.6 nM, and a double replicate well experiment was set up. Add 78 μL of culture medium to the intermediate plate, and transfer 2 μL of gradient diluted compound per well to the intermediate plate according to the corresponding positions. Mix well and transfer 20 μL of each well to the cell plate. […] Another cell plate was prepared, and the signal value was read as the maximum value (Max value in the equation below) on the day of dosing to participate in the data analysis.
Each 100 μL of cell viability chemiluminescence detection reagent was added to the cell plate and incubated at room temperature for 30 minutes to stabilize the luminescence signal. Use multi-label analyzer for reading. […]

Structure (SMILES)	IC50 [1] [nM]	IC50 [2] [nM]
C=C1CN2CCC[C@@]2(COc2nc3c(c(N4CC5CCC(CO)(C4)N5)n2)CO[C@H](c2c(F)c(N)cc(C#CC)c2C(F)(F)F)C3)C1 (some centres unmarked) [Hydrochloride of Compound 1]	164	
C=C1CN2CCC[C@@]2(COc2nc3c(c(N4CC5CCC(C4)N5)n2)CO[C@H](c2c(F)c(N)cc(C#CCl)c2C(F)(F)F)C3)C1 [Trifluoroacetate of Compound 7]		24.9
